Reference: patent US20100173332A1, “Method for the Fluorescent Detection of Nitroreductase Activity Using Nitro-Substituted Aromatic Compounds” (Auckland Uniservices Limited, priority 2006, published 2010)
Entries after “also recorded” stand apart in the source; their conditions may differ. Counter-ions that a name gives are not always drawn.

Experiments:
[1] = molecular target: T1, E. coli nitroreductase (nfsB) (Escherichia coli, UniProt P38489); assay: Entrapment of fluorescent products within nitroreductase expressing HCT116 cells; assay type: cell-based; settings: washed
T1 construct: expressed in transfected cells; host or cells: MDA231 (MDA-231) human breast cancer cell line, clonal derivative MDA231 NTR
Experimental: The human colorectal cancer cell line (HCT116^WT) and a clonal derivative (HCT116^NTR) engineered to express the reporter gene E. coli nitroreductase (nfsB) under the control of a constitutive promoter were seeded onto glass coverslips at an equal density (50:50). Cells were equilibrated to 37° C., 5% CO2, and compound 1 and 13 was added to a final concentration of 100 μM for 1 hr. Cells were washed free of compound after 1 hour and fluorescence was monitored as a function of time (FIG. 8).
In further screening (FIG. 9), the human colorectal cancer cell line (HCT116^WT) and a clonal derivative (HCT116^NTR) engineered to express the reporter gene E. coli nitroreductase (nfsB) under the control of a constitutive promoter were seeded separately into a 96-well glass plate. Cells were equilibrated to 37° C., 5% CO2, and compounds were added to a final concentration of 10 μM for 1.5 hr. Cells were washed free of compound and fluorescence was monitored 6 hours post-exposure. […] The image has been rendered monochromatic for the purposes of publication quality.

[2] = Aerobic/anaerobic stability in cell-free culture media (fluorescence); assay type: physicochemical; settings: 100 μM, 37° C., 4 hr, air or 95% N2
Experimental: Compounds 1-15 or methyl 7-nitrocoumarin carboxylate (methyl 7-nitro-2-oxo-2H-chromene-3-carboxylate) or 7-nitrocoumarin-3-carboylic acid or 6-chloro-9-nitro-5H-benzo[a]phenoxazin-5-one were added to a final concentration of 100 μM in cell-free culture media and were held at 37° C., 5% CO2 for 4 hr under either air or 95% N2. The fluorescence signal was monitored at 355/460 except for compounds 4 and 11 that were monitored at 405/585 and compounds 8, 10 and 6-Cl-9-nitro-5-oxo-5H-benzo[a]phenoxazine that were monitored at 355/585, 355/535 and 530/585 respectively (FIG. 12).

[3] = molecular target: T2, NAD(P)H dehydrogenase quinone 1 (DT-diaphorase; NQO1) (Homo sapiens, UniProt P15559); assay: Detecting human aerobic nitroreductase activity in MDA231 DTD cells; assay type: cell-based; settings: for fluorescent signal in the presence of human NQO1 expression: MDA231 DTD cells, 100 μM, 4 hr (FIG. 5)
T2 construct: expressed in transfected cells; host or cells: MDA231 human breast cancer cell line, clonal derivative MDA231 DTD
Experimental: The human breast cancer cell line (MDA231^WT) and a clonal derivative (MDA231^DTD) engineered to express the human aerobic reductase, NAD(P)H dehydrogenase quinone 1 (DT-diaphorase; NQO1) under the control of a constitutive promoter were seeded into 96-well plates at a density of 1×10^5 cells/well. When samples were equilibrated to 37° C., 5% CO2 for 2 hr and compounds 1 to 15 were added to a final concentration of 100 μM for 4 hr. Test groups were cell-free culture media alone (control), MDA231^WT and MDA231^DTD. The fluorescence signal was monitored at 355/460 except for compounds 4 and 11 that were monitored at 405/585 and compounds 8 and 10 that were monitored at 355/585 and 355/535 respectively (FIG. 5).
In a further exemplification, the human breast cancer cell line (MDA231^WT) and a clonal derivative (MDA231^DTD) engineered to express the human NQO1 gene (DT-diaphorase) under the control of a constitutive promoter were seeded into 96-well tissue culture plates at 1×10^5 cells/well. Samples were equilibrated to 37° C., 5% CO2, compound (1) (6-nitro-4(1H)-quinolinone) was added to a final concentration of 300 μM. Test groups were culture media alone (control), MDA231^WT cells and MDA231^DTD cells. The rate of fluorescence signal generation at 355/460 was monitored as a function of time (FIG. 6).

[4] = Aqueous stability in minimal essential media in the absence of cells (background fluorescence); assay type: physicochemical; settings: for increase in background florescence in culture media: 300 μM, minimal essential media, 37° C., 5% CO2, 355/460, over 7.8 hours; for aqueous stability compared with methyl-7-nitrocoumarin carboxylate and 7-nitrocoumarin-3-carboxylic acid: FIG. 11
Experimental: In a further experiment, the aqueous stability of compounds 1 and 2 were compared with the compounds methyl-7-nitrocoumarin carboxylate and 7-nitrocoumarin-3-carboxylic acid in the absence of cell culture. Minimal essential media was equilibrated to 37° C., 5% CO2 for 2 hr and compounds were added to a final concentration of 300 μM. […]

[5] = molecular target: T1, E. coli nitroreductase (nfsB); assay: Nitroreductase specificity: fluorescence in MDA231 NTR versus MDA231 WT cells; assay type: cell-based; settings: for differential fluorescent signal MDA231 NTR versus MDA231 WT: 95% N2, 355/460, at 7.5 hours
Experimental: The human breast cancer cell line (MDA231^WT) and a clonal derivative (MDA231^NTR) engineered to overexpress the E. coli nitroreductase (nfsB) under the control of a constitutive promoter were seeded into 96-well plates at a density of 2×10^4 cells/well. When samples were equilibrated to 37° C., 95% N2, 5% CO2 for 2 hr and compound 2 or methyl 7-nitrocoumarin carboxylate (methyl 7-nitro-2-oxo-2H-chromene-3-carboxylate) were added to a final concentration of 300 μM. The fluorescence signal was monitored at 355/460 over a 7.5 hour time frame (FIG. 10).

[6] = molecular target: T1, E. coli nitroreductase (nfsB); assay: Rate of fluorescence signal generation in stirred HCT116 NTR cell suspension; assay type: cell-based; settings: 300 μM, 355/460
Experimental: In a further exemplification, the human colorectal cancer cell line (HCT116^WT) and a clonal derivative (HCT116^NTR) engineered to express the reporter gene E. coli nitroreductase (nfsB) under the control of a constitutive promoter were suspended in stirred culture media at a density of 5×10^6 cells/ml. When samples were equilibrated to 37° C., 5% CO2, compound (2) (1-methyl-6-nitro-4(1H)-quinolinone) was added to a final concentration of 300 μM. Test groups were culture media alone (control), HCT116^WT and HCT116^NTR. The rate of fluorescence signal generation at 355/460 was monitored as a function of time (FIG. 4).

[7] = 300 μM, 95% N2, 355/460, 7.5 hour time frame

T2 sequence (P15559 whole entry): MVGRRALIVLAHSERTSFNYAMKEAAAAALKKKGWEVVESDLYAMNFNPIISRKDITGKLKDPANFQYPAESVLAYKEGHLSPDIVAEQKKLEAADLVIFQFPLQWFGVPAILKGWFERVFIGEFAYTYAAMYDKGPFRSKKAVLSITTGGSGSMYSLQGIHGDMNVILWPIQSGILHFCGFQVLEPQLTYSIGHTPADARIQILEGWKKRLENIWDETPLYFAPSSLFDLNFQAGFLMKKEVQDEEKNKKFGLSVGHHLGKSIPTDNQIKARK
T1 sequence (P38489 whole entry): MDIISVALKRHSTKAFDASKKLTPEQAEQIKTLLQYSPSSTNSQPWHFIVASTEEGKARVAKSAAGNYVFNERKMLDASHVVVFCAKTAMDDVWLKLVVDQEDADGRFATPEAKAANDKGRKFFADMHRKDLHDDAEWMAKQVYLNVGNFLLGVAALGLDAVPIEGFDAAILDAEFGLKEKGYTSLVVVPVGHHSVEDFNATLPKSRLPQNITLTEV

## COC(=O)CCCNS(=O)(=O)c1ccc2cccc(N)c2c1 [Compound 22, Methyl 4-{[(8-amino-2-naphthyl)sulfonyl]amino}butanoate]
other
  melting point: 162 to 167 °C

## CN(C)CCCNc1ccnc2cc([N+](=O)[O-])ccc12 [Compound 15, N^1,N^1-Dimethyl-N^3-(7-nitro-4-quinolinyl)-1,3-propanediamine]
[1]; 10 μM for 1.5 hr, 6 hours post-exposure
  cellular retention of fluorescence in nitroreductase expressing but not parental HCT116 cells: possessing cellular retention properties

## O=c1c(Cl)c2oc3cc([N+](=O)[O-])ccc3nc-2c2ccccc12 [6-chloro-9-nitro-5H-benzo[a]phenoxazin-5-one]
[2]
  fluorescence in cell-free culture media (instability): measurable fluorescence; also recorded: lacks stability in culture medium under conditions of low oxygen

## CN(C)CCNC(=O)c1cc(N)cc2c(=O)c3ccccc3[nH]c12 [Compound 18, 2-Amino-N-[2-(dimethylamino)ethyl]-9-oxo-9,10-dihydro-4-acridinecarboxamide]
other
  melting point: 198 to 202 °C

## CN(C)CCCOc1ccnc2cc([N+](=O)[O-])ccc12 (as salt: trifluoroacetate) [Compound 14, N,N-dimethyl-3-[(7-nitro-4-quinolinyl)oxy]-1-propanamine]
other
  melting point: 146 to 149 °C

## Cn1ccc(=O)c2cc(N)ccc21 [Compound 17, 6-Amino-1-methyl-4(1H)-quinolinone]
other
  melting point: 212 to 214 °C

## O=c1cc[nH]c2ccc([N+](=O)[O-])cc12 [Compound 1, 6-Nitro-4(1H)-quinolinone]
[3]; 300 μM, 355/460
  fluorescence in wells with compound alone (control) or parental MDA231 WT: No detectable fluorescence
[3]; 300 μM, 355/460 (FIG. 6)
  fluorescent signal generation by MDA231 DTD cells as a function of time: generate a fluorescent signal
[3]
  fluorescent signal in the presence of human NQO1 expression: gave rise to a fluorescent signal
[1]; HCT116 WT:HCT116 NTR 50:50 co-culture, 100 μM for 1 hr, by 4 hours
  retention of fluorescence in cells after wash: no longer fluorescent
[4]
  increase in background florescence in culture media: 1.4 fold
  aqueous stability compared with methyl-7-nitrocoumarin carboxylate and 7-nitrocoumarin-3-carboxylic acid: superior aqueous stability

## COC(=O)c1cc2ccc([N+](=O)[O-])cc2oc1=O [methyl 7-nitrocoumarin carboxylate, methyl 7-nitro-2-oxo-2H-chromene-3-carboxylate, reference compound]
[5]; [7]
  fluorescence in control cell line MDA231 WT: measurable fluorescence
[5]; 300 μM
  differential fluorescent signal MDA231 NTR versus MDA231 WT: 1.6 fold
[4]
  increase in background florescence in culture media: 4.2 fold
[2]
  fluorescence in cell-free culture media (instability): measurable fluorescence

## O=C(O)c1cc2ccc([N+](=O)[O-])cc2oc1=O [7-nitrocoumarin-3-carboxylic acid, reference compound]
[4]
  increase in background florescence in culture media: 5.3 fold
[2]
  fluorescence in cell-free culture media (instability): measurable fluorescence

## Cn1ccc(=O)c2cc([N+](=O)[O-])ccc21 [Compound 2, 1-Methyl-6-nitro-4(1H)-quinolinone]
[6]; 5×10^6 cells/ml
  time by which reduction by HCT116 NTR cells approached completion: ≤ 9 h
[6]
  fluorescence in control or parental HCT116 WT cultures: No detectable fluorescence
[5]; [7]
  fluorescence in control cell line MDA231 WT: no detectable fluorescence
  fluorescence in nitroreductase-expressing cell line MDA231 NTR: robust fluorescent signal
[5]; 300 μM
  differential fluorescent signal MDA231 NTR versus MDA231 WT: 480 fold
[5]; FIG. 10
  performance as nitroreductase fluorescent reporter relative to methyl 7-nitrocoumarin carboxylate: superiority
[4]
  increase in background florescence in culture media: 1.4 fold
  aqueous stability compared with methyl-7-nitrocoumarin carboxylate and 7-nitrocoumarin-3-carboxylic acid: superior aqueous stability

## CN(C)CCCCN1C(=O)c2cccc3cc(N)cc(c23)C1=O [Compound 19, 5-Amino-2-[4-(dimethylamino)butyl]-1H-benzo[de]isoquinoline-1,3(2H)-dione]
other
  melting point: 99 to 101 °C

## COC(=O)CCCNS(=O)(=O)c1cccc2c([N+](=O)[O-])cccc12 [Compound 8, methyl 4-{[(5-nitro-1-naphthyl)sulfonyl]amino}butanoate]
other
  melting point: 94 to 96 °C

## Cc1cc(=O)c2cc([N+](=O)[O-])ccc2[nH]1 [Compound 3, 2-Methyl-6-nitro-4(1H)-quinolinone]
[3]
  fluorescent signal in the presence of human NQO1 expression: gave rise to a fluorescent signal; also recorded: generate a fluorescent signal
